Data published in patent publication US7491819B1 (priority 2004, dated 2009).

Molecular target: T1, HIV-integrase (Human immunodeficiency virus type 1 group M subtype B, UniProt P12497)
T1 construct: Recombinant integrase (0.26 ng) was incubated with the beads
Experiment: HIV-Integrase Inhibition Activity (SPA bead strand-transfer assay)
Type: biochemical
Conditions: Table 1; read-out: Activity (HIV-integrase inhibition, IC50 class)
How it was run: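 Strand-transfer read-out: CPM from P33-labelled target DNA (0.1 fmol) joined to bead-bound biotin substrate DNA (5 pmole), with EDTA stop at 10 mM final. Integrase (0.26 ng) prebound to streptavidin SPA beads 90 min, 37° C, and washed before adding inhibitor.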

| Compound | IC50 [µM] |
| --- | --- |
| CCc1cc(CNC(=O)c2nc3n(c(=O)c2O)CCOC3(C)C)ccc1F [Example 247, Pyrimido[2,1-c][1,4]oxazine-2-carboxamide, N-[(3-ethyl-4-fluorophenyl)methyl]-4,6,7,9-tetrahydro-3-hydroxy-9,9-dimethyl-4-oxo-] | 0.002 to 0.1 |
| CC1(C)OCCn2c1nc(C(=O)NCc1ccc(F)cc1Cl)c(O)c2=O [Example 36, Pyrimido[2,1-c][1,4]oxazine-2-carboxamide, N-[(2-chloro-4-fluorophenyl)methyl]-4,6,7,9-tetrahydro-3-hydroxy-9,9-dimethyl-4-oxo-] | 0.002 to 0.1 |
| CC1(C)OCCn2c1nc(C(=O)NCc1ccc(N3CCOCC3)cc1)c(O)c2=O [Example 253, Pyrimido[2,1-c][1,4]oxazine-2-carboxamide, 4,6,7,9-tetrahydro-3-hydroxy-9,9-dimethyl-N-[[4-(4-morpholinyl)phenyl]methyl]-4-oxo-] | > 1 |
| CC(=O)OC[C@H]1CCC(=O)N1c1cc(F)ccc1CNC(=O)c1nc2n(c(=O)c1O)CCOC2(C)C [Example 129, Pyrimido[2,1-c][1,4]oxazine-2-carboxamide, N-[[2-[(2R)-2-[(acetyloxy)methyl]-5-oxo-1-pyrrolidinyl]-4-fluorophenyl]methyl]-4,6,7,9-tetrahydro-3-hydroxy-9,9-dimethyl-4-oxo-] | 0.002 to 0.1 |
| CC1(C)OCCn2c1nc(C(=O)NCc1ccc(F)cc1-c1ccccc1)c(O)c2=O [Example 74, Pyrimido[2,1-c][1,4]oxazine-2-carboxamide, N-[(5-fluoro[1,1′-biphenyl]-2-yl)methyl]-4,6,7,9-tetrahydro-3-hydroxy-9,9-dimethyl-4-oxo-] | 0.002 to 0.1 |
| Cc1cc(CNC(=O)c2nc3n(c(=O)c2O)CCOC3C(C)C)ccc1F (stereo not shown) [Example 18, Pyrimido[2,1-c][1,4]oxazine-2-carboxamide, N-[(4-fluoro-3-methylphenyl)methyl]-4,6,7,9-tetrahydro-3-hydroxy-9-(1-methylethyl)-4-oxo-] | 0.002 to 0.1 |
| Cc1cc(CNC(=O)c2nc3n(c(=O)c2O)CCOC3(C)C)ccc1F [Example 20, Pyrimido[2,1-c][1,4]oxazine-2-carboxamide, N-[(4-fluoro-3-methylphenyl)methyl]-4,6,7,9-tetrahydro-3-hydroxy-9,9-dimethyl-4-oxo-] | 0.002 to 0.1 |
| CC1(C)OCCn2c1nc(C(=O)NCc1cccc(F)c1-n1cncn1)c(O)c2=O [Example 56, Pyrimido[2,1-c][1,4]oxazine-2-carboxamide, N-[[3-fluoro-2-(1H-1,2,4-triazol-1-yl)phenyl]methyl]-4,6,7,9-tetrahydro-3-hydroxy-9,9-dimethyl-4-oxo-] | 0.002 to 0.1 |
| COc1cc(CNC(=O)c2nc3n(c(=O)c2O)CCOC3(C)C)ccc1O [Example 225, Pyrimido[2,1-c][1,4]oxazine-2-carboxamide, 4,6,7,9-tetrahydro-3-hydroxy-N-[(4-hydroxy-3-methoxyphenyl)methyl]-9,9-dimethyl-4-oxo-] | 0.002 to 0.1 |
| CC1(C)OCCn2c1nc(C(=O)NCc1ccc(F)c(F)c1)c(O)c2=O [Example 33, Pyrimido[2,1-c][1,4]oxazine-2-carboxamide, N-[(3,4-difluorophenyl)methyl]-4,6,7,9-tetrahydro-3-hydroxy-9,9-dimethyl-4-oxo-] | 0.002 to 0.1 |
| CC1(C)OCCn2c1nc(C(=O)NCc1ccc(F)cc1Nc1nccs1)c(O)c2=O [Example 115, Pyrimido[2,1-c][1,4]oxazine-2-carboxamide, N-[[4-fluoro-2-(2-thiazolylamino)phenyl]methyl]-4,6,7,9-tetrahydro-3-hydroxy-9,9-dimethyl-4-oxo-] | 0.002 to 0.1 |
| CCC1OCCn2c1nc(C(=O)NCc1ccc(F)cc1C(=O)NC)c(O)c2=O (stereo not shown) [Example 15, Pyrimido[2,1-c][1,4]oxazine-2-carboxamide, 9-ethyl-N-[[4-fluoro-2-[(methylamino)carbonyl]phenyl]methyl]-4,6,7,9-tetrahydro-3-hydroxy-4-oxo-] | 0.002 to 0.1 |
| CN(C)C[C@H]1CCC(=O)N1c1cc(F)ccc1CNC(=O)c1nc2n(c(=O)c1O)CCOC2(C)C [Example 131, (R)—N-(2-(2-((Dimethylamino)methyl)-5-oxopyrrolidin-1-yl)-4-fluorobenzyl)-3-hydroxy-9,9-dimethyl-4-oxo-4,6,7,9-tetrahydropyrimido[2,1-c][1,4]oxazine-2-carboxamide] | 0.1 to 1 |
| CC1(C)OCCn2c1nc(C(=O)NCc1c(F)cccc1Cl)c(O)c2=O [Example 273, Pyrimido[2,1-c][1,4]oxazine-2-carboxamide, N-[(2-chloro-6-fluorophenyl)methyl]-4,6,7,9-tetrahydro-3-hydroxy-9,9-dimethyl-4-oxo-] | 0.002 to 0.1 |
| CC1(C)OCCn2c1nc(C(=O)NCc1ccccc1-c1ccc(N)nc1)c(O)c2=O [Example 157, Pyrimido[2,1-c][1,4]oxazine-2-carboxamide, N-[[2-(6-amino-3-pyridinyl)phenyl]methyl]-4,6,7,9-tetrahydro-3-hydroxy-9,9-dimethyl-4-oxo-] | 0.002 to 0.1 |
| CC1(C)OCCn2c1nc(C(=O)NCc1ccc(F)cc1N1CCOCC1)c(O)c2=O [Example 23, Pyrimido[2,1-c][1,4]oxazine-2-carboxamide, N-[[4-fluoro-2-(4-morpholinyl)phenyl]methyl]-4,6,7,9-tetrahydro-3-hydroxy-9,9-dimethyl-4-oxo-] | 0.002 to 0.1 |
| CC1(C)OCCn2c1nc(C(=O)NCc1ccc(F)cc1-n1nccn1)c(O)c2=O [Example 57, Pyrimido[2,1-c][1,4]oxazine-2-carboxamide, N-[[4-fluoro-2-(2H-1,2,3-triazol-2-yl)phenyl]methyl]-4,6,7,9-tetrahydro-3-hydroxy-9,9-dimethyl-4-oxo-] | 0.002 to 0.1 |
| CSc1ccc(CNC(=O)c2nc3n(c(=O)c2O)CCOC3(C)C)cc1 [Example 143, Pyrimido[2,1-c][1,4]oxazine-2-carboxamide, 4,6,7,9-tetrahydro-3-hydroxy-9,9-dimethyl-N-[[4-(methylthio)phenyl]methyl]-4-oxo-] | 0.002 to 0.1 |
| CC1(C)OCCn2c1nc(C(=O)NCc1ccccc1-c1ccoc1)c(O)c2=O [Example 198, Pyrimido[2,1-c][1,4]oxazine-2-carboxamide, N-[[2-(3-furanyl)phenyl]methyl]-4,6,7,9-tetrahydro-3-hydroxy-9,9-dimethyl-4-oxo-] | 0.002 to 0.1 |
| COc1cc(Cl)ccc1-c1ccccc1CNC(=O)c1nc2n(c(=O)c1O)CCOC2(C)C [Example 161, Pyrimido[2,1-c][1,4]oxazine-2-carboxamide, N-[(4′-chloro-2′-methoxy[1,1′-biphenyl]-2-yl)methyl]-4,6,7,9-tetrahydro-3-hydroxy-9,9-dimethyl-4-oxo-] | 0.002 to 0.1 |
| CC1(C)OCCn2c1nc(C(=O)NCc1ccc(Cl)cc1)c(O)c2=O [Example 34, Pyrimido[2,1-c][1,4]oxazine-2-carboxamide, N-[(4-chlorophenyl)methyl]-4,6,7,9-tetrahydro-3-hydroxy-9,9-dimethyl-4-oxo-] | 0.002 to 0.1 |
| COc1cncc(-c2ccccc2CNC(=O)c2nc3n(c(=O)c2O)CCOC3(C)C)c1 [Example 153, Pyrimido[2,1-c][1,4]oxazine-2-carboxamide, 4,6,7,9-tetrahydro-3-hydroxy-N-[[2-(5-methoxy-3-pyridinyl)phenyl]methyl]-9,9-dimethyl-4-oxo-] | 0.002 to 0.1 |
